Reference: patent US7012068B2, “Co-administration of a polysaccharide with a chemotherapeutic agent for the treatment of cancer” (Pro-Pharmaceuticals, Inc., priority 2001, dated 2006)
“And” between values parts separate entries of the source, which are not always exact repeats. Equal values may be shown once. Read-outs that look alike come from different tables or passages of the source.

Key:
[1] = test system: Albino Swiss mice; settings: 17 days
[2] = test system: mice; settings: cited from earlier work
[3] = test system: COLO 205 human colon tumor; settings: for Animals died, Total: over 8 weeks (incl. sacrificed); for Mean survival time: parametric models and stratified Kaplan-Meier estimation
[4] = test system: Albino Swiss mice; settings: single i.v. LD50 dose of Adriamycin with or without galactomannan, 14 days
Experimental: Acute systemic toxicity of the anti-tumor drug adriamycin in the presence and absence of mannan was evaluated in Albino Swiss mice. Mice were bred as described Example 1. Experimental procedures followed approved governmental guidelines as described in Example 1.
A single dose intravenous injection of the adriamycin alone or adriamycin together with galactomannan preparations was provided via the tail vein at a dose of 0.5 mL/mouse at the doses described below in (1)-(3) and observed for clinical signs immediately after injection, and daily for the duration of the study.
There were a total of 3 groups of 5 animals each. The groups were as follows: 1) 0.9% NaCl only, 2) Adriamycin only (1.1 mg/mL) and Adriamycin (1.1 mg/mL)+galactomannan (7.2mg/mL).
0.9% NaCl was used as a diluent. Animals were weighed prior to injection and at the end of the observation period. Animals surviving at the end of the study were sacrificed by carbon dioxide inhalation.
The ability of galactomannan to reduce the toxicity of LD50 dosed of Adriamycin was measured by presence or absence of mortality in animals injected with the combination of Adriamycin and the particular polysaccharide.

[5] = 1 week after treatment initiation, q4d × 3, 5-FU 75 mg/kg, GM 120 mg/kg
[6] = 1 week after treatment initiation, q4d × 3, 5-FU 75 mg/kg, GM 120 mg/kg, 10 mice per group
[7] = 2 weeks after treatment initiation, q4d × 3, 5-FU 75 mg/kg, GM 120 mg/kg
[8] = 2 weeks after treatment initiation, q4d × 3, 5-FU 75 mg/kg, GM 120 mg/kg, 10 mice per group
[9] = 3 weeks after treatment initiation, q4d × 3, 5-FU 75 mg/kg, GM 120 mg/kg
[10] = 3 weeks after treatment initiation, q4d × 3, 5-FU 75 mg/kg, GM 120 mg/kg, 10 mice per group
[11] = 4 weeks (28 days) after treatment initiation, q4d × 3, 5-FU 75 mg/kg, GM 120 mg/kg
[12] = 4 weeks after treatment initiation, q4d × 3, 5-FU 75 mg/kg, GM 120 mg/kg, 10 mice per group
[13] = 5 weeks (35 days) after treatment initiation, q4d × 3, 5-FU 75 mg/kg, GM 120 mg/kg
[14] = 5 weeks after treatment initiation, q4d × 3, 5-FU 75 mg/kg, GM 120 mg/kg, 10 mice per group
[15] = 6 weeks after treatment initiation (incl. sacrificed), q4d × 3, 5-FU 75 mg/kg, GM 120 mg/kg, 10 mice per group
[16] = 6 weeks after treatment initiation, q4d × 3, 5-FU 75 mg/kg, GM 120 mg/kg
[17] = 7 weeks after treatment initiation (incl. sacrificed), q4d × 3, 5-FU 75 mg/kg, GM 120 mg/kg, 10 mice per group
[18] = 7 weeks after treatment initiation, q4d × 3, 5-FU 75 mg/kg, GM 120 mg/kg
[19] = 8 weeks after treatment initiation (incl. sacrificed), q4d × 3, 5-FU 75 mg/kg, GM 120 mg/kg, 10 mice per group
[20] = Day 0 after treatment initiation, q4d × 3, 5-FU 75 mg/kg, GM 120 mg/kg
[21] = Day 3 after treatment initiation, q4d × 3, 5-FU 75 mg/kg, GM 120 mg/kg
[22] = i.v. q4d × 3, 5-FU 75 mg/kg, GM 120 mg/kg
[23] = i.v. q4d × 3, 5-FU 75 mg/kg, GM 120 mg/kg, 10 mice per group
[24] = q4d × 3, 5-FU 75 mg/kg, GM 120 mg/kg, 10 mice per group
[25] = q4d × 3, 5-FU 75 mg/kg, GM 120 mg/kg
[26] = GM 60 mg/kg q1d × 5, 10 mice per group

O=c1[nH]cc(F)c(=O)[nH]1 [5-FU, 5-fluorouracil, reference compound]
death rate (mice dying / mice in group) ([1]; single i.v. 5-FU 420 mg/kg with or without galactomannan): 3/5
LD50 ([2]; 5-FU, single dose in mice, Physician's Desk Reference 48th Edition): 340 mg/kg
Median tumor weight [3, 5]: 198 mg
Animals died [3, 6]: 1
Median tumor weight [3, 7]: 245 mg
Animals died [3, 8]: 2
Median tumor weight [3, 9]: 352 mg
Animals died [3, 10]: 0
Median tumor weight [3, 11]: 527 mg
Animals died [3, 12]: 0
deaths out of ten mice within 10 days after the treatment initiation ([3]; 5-FU 375 mg/kg/dose q4d×3, alone or with galactomannan 120 mg/kg/dose): nine
Median tumor weight [3, 13]: 990 mg
Animals died [3, 14]: 1
Animals died [3, 15]: 0
Median tumor weight [3, 16]: 1345 mg
Animals died [3, 17]: 0
Median tumor weight [3, 18]: 1881 mg
Animals died [3, 19]: 1
Median tumor weight [3, 20]: 101 mg
Median tumor weight [3, 21]: 135 mg
Median days to 2× doubling of tumor weight [3, 22]: 23.7 days
Animals with small tumors (20% and less) compared to median of untreated after 4-8 weeks of treatment [3, 23]: 1
treatment-related (nonspecific) deaths within two weeks ([3]; out of ten mice, q4d×3, 5-FU 75 mg/kg/dose, galactomannan 120 mg/kg/dose): three
Animals died, Total [3, 24]: 5
Mean survival time [3, 25]: 23.7 days

COc1cccc2c1C(=O)c1c(O)c3c(c(O)c1C2=O)C[C@@](O)(C(=O)CO)C[C@@H]3O[C@H]1C[C@H](N)[C@H](O)[C@H](C)O1 [Adriamycin, doxorubicin]
mortality (mice died / mice in group) [4]: Three out of 5 and 3 out of 5
mortality (mice died / mice in group) ([4]; listed as adriamycin): 3/5
LD50 ([2]; Adriamycin, i.v. in mice, The Merck Index, 12th Edition): 21.1 mg/kg

galactomannan [GM]
Signs of Toxicity (summary of clinical observations) ([1]; individual male mouse, single i.v. 0.5 mL/mouse: 5-FU 17 mg/mL, GM 4.73 mg/mL, 5-FU 17 mg/mL + GM 9.06 mg/mL): None
Median tumor weight ([3]; 1 week after treatment initiation, GM 60 mg/kg q1d × 5): 216 mg
Animals died ([3]; 1 week after treatment initiation, GM 60 mg/kg q1d × 5, 10 mice): 1
Median tumor weight [3, 5]: 258 mg
Animals died [3, 6]: 0
Median tumor weight ([3]; 2 weeks after treatment initiation, GM 60 mg/kg q1d × 5): 319 mg
Animals died ([3]; 2 weeks after treatment initiation, GM 60 mg/kg q1d × 5, 10 mice): 0
Median tumor weight [3, 7]: 320 mg
Animals died [3, 8]: 0
Median tumor weight ([3]; 3 weeks after treatment initiation, GM 60 mg/kg q1d × 5): 512 mg
Animals died ([3]; 3 weeks after treatment initiation, GM 60 mg/kg q1d × 5, 10 mice): 0
Median tumor weight [3, 9]: 629 mg
Animals died [3, 10]: 0
Median tumor weight [3, 11]: 959 mg
Median tumor weight ([3]; 4 weeks after treatment initiation, GM 60 mg/kg q1d × 5): 690 mg
Animals died ([3]; 4 weeks after treatment initiation, GM 60 mg/kg q1d × 5, 10 mice): 1
Animals died [3, 12]: 0
Median tumor weight [3, 13]: 1692 mg
Median tumor weight ([3]; 5 weeks after treatment initiation, GM 60 mg/kg q1d × 5): 1116 mg
Animals died ([3]; 5 weeks after treatment initiation, GM 60 mg/kg q1d × 5, 10 mice): 0
Animals died [3, 14]: 0
Animals died [3, 15]: 1
Median tumor weight ([3]; 6 weeks after treatment initiation, GM 60 mg/kg q1d × 5): 1421 mg
Animals died ([3]; 6 weeks after treatment initiation, GM 60 mg/kg q1d × 5, 10 mice): 0
Median tumor weight [3, 16]: 1690 mg
Animals died ([3]; 7 weeks after treatment initiation (incl. sacrificed), GM 60 mg/kg q1d × 5, 10 mice): 1
Animals died [3, 17]: 0
Median tumor weight ([3]; 7 weeks after treatment initiation, GM 60 mg/kg q1d × 5): 1152 mg
Median tumor weight [3, 18]: 1764 mg
Median tumor weight ([3]; 8 weeks (56 days) after treatment initiation, GM 60 mg/kg q1d × 5): 1152 mg
Median tumor weight ([3]; 8 weeks (56 days) after treatment initiation, q4d × 3, 5-FU 75 mg/kg, GM 120 mg/kg): 1813 mg
Animals died [3, 19]: 1
Animals died ([3]; 8 weeks after treatment initiation, GM 60 mg/kg q1d × 5, 10 mice): 0
Median tumor weight ([3]; Day 0 after treatment initiation, GM 60 mg/kg q1d × 5): 117 mg
Median tumor weight [3, 20]: 100 mg
Median tumor weight ([3]; Day 3 after treatment initiation, GM 60 mg/kg q1d × 5): 162 mg
Median tumor weight [3, 21]: 162 mg
Median days to 2× doubling of tumor weight ([3]; GM 60 mg/kg q1d × 5): 20.0 days
Animals with small tumors (20% and less) compared to median of untreated after 4-8 weeks of treatment [3, 26]: 0
Tumor complete regression after 56 days of treatment [3, 26]: 0
Median days to 2× doubling of tumor weight [3, 22]: 15.5 days
Animals with small tumors (20% and less) compared to median of untreated after 4-8 weeks of treatment [3, 23]: 1
Tumor complete regression after 56 days of treatment [3, 23]: 0
Animals died, Total ([3]; GM 60 mg/kg q1d × 5, 10 mice): 3
Animals died, Total [3, 24]: 2
Mean survival time ([3]; GM 60 mg/kg q1d × 5): 18.1 days
Mean survival time [3, 25]: 19.2 days
